The structures appear in SMILES notation.

We go through nine molecules from US20240208937A1, “Compounds and Their Use for Treatment of Hemoglobinopathies” (Bristol-Myers Squibb Company, priority 2022, published 2024).

Common to all, as to type: cell-based
In test [1] the target is WIZ (Widely interspaced zinc finger) (Homo sapiens (Human), UniProt O95785+Q96SW2). In words: HUDEP-2 WIZ HiBiT degradation assay. The note with it: HUDEP-2 WIZ HiBiT cells, 24 hours treatment, luminescence; for DC50: read-out: WIZ EC50. As for the experimental part: (§1) The HiBiT degradation assay for WIZ and ZBTB7A in HUDEP-2 cells was performed as described below. HUDEP-2 cells engineered to express a HiBiT tag in either the WIZ (Widely interspaced zinc finger) or ZBTB7A (Zinc Finger And BTB Domain Containing 7A) proteins were maintained in low attachment flasks in StemSpan SFEM II media supplemented with Penicillin-Streptomycin (50 U/mL), rhSCF (50 ng/mL), rhEPO (3 IU/mL), dexamethasone (0.4 μg/mL) and doxycycline (1 μg/mL). Prior to start of the assay, cell count and viability were measured by trypan blue exclusion using the Vi-cell XR cell viability analyzer. For the HUDEP-2 WIZ HiBiT assay, cells were transferred to a 50 mL conical and centrifuged at 500 g for five minutes. Cells were resuspended in fresh StemSpan SFEM II media supplemented with Penicillin-Streptomycin (50 U/mL), rhSCF (50 ng/mL), rhEPO (3 IU/mL), dexamethasone (0.4 μg/mL) and doxycycline (1 μg/mL) at a density of 1.0×10^6 cells/ml. Forty microliters of cell suspension was dispensed into 384-well Low Flange White Flat Bottom Polystyrene TC-treated Microplates containing pre-dispensed compounds, using a VIAFLO 384 liquid hander, and placed in a 37° C. incubator with 5% CO2. […] After 24 hours of treatment, 40 μL Nano-Glo HiBiT Lytic Detection System reagent was dispensed into each well using a VIAFLO 384 liquid hander. Plates were incubated for 25 minutes at room temperature and the luminescence was read as relative luminescent units using the EnVision plate reader. EC50 and Y-min values were calculated using curves calculated from dotmatics software after the normalization to the DMSO control of 10 different concentrations: 10, 3.33, 1.11, 0.37, 0.12, 0.04 0.0137, 0.0046, 0.0015 and 0.0005 μM respectively.
WIZ (Widely interspaced zinc finger), sequence (O95785 whole entry, the tested form may be a part): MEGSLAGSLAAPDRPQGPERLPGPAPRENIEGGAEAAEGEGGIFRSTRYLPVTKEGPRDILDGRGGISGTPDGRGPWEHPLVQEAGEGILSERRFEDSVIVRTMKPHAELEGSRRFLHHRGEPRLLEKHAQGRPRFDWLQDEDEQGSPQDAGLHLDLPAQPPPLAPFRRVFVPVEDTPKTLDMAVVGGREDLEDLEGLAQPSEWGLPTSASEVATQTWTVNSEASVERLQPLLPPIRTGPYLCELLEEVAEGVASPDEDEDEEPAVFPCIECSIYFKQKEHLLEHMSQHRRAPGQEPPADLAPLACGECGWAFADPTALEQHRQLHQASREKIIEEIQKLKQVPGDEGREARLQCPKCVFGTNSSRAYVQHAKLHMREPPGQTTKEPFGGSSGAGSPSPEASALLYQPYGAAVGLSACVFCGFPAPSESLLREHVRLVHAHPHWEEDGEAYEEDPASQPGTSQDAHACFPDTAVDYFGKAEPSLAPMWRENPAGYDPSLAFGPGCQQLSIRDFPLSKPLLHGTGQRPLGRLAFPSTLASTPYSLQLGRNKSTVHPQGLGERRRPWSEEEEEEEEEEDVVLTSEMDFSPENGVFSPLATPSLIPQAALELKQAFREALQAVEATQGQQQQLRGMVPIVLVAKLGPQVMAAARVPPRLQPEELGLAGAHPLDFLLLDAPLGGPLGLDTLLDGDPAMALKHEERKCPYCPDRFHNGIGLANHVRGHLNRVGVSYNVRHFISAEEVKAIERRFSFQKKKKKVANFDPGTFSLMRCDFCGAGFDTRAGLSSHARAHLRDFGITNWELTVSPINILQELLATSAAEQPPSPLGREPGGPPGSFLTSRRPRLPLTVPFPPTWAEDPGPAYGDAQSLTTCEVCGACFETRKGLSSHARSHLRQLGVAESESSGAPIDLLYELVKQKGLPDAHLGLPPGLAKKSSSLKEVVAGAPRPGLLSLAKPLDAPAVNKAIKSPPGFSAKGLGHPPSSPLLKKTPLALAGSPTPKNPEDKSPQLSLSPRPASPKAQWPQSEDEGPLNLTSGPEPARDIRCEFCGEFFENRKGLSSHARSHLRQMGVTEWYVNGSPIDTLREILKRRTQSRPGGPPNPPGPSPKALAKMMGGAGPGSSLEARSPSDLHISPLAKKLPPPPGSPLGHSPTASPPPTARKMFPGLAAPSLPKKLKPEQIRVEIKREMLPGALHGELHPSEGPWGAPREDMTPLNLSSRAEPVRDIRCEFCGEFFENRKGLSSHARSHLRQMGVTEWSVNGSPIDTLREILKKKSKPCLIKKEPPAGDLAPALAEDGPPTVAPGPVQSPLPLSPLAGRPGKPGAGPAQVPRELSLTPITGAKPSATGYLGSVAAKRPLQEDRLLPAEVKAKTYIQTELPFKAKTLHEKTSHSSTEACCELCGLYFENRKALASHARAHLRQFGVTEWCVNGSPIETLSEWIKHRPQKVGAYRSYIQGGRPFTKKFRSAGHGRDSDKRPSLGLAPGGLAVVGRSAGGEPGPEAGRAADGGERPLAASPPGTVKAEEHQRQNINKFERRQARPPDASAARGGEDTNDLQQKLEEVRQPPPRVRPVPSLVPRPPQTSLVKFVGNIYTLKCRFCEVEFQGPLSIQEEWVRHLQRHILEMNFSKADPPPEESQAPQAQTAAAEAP
WIZ (Widely interspaced zinc finger), sequence (Q96SW2 whole entry, the tested form may be a part): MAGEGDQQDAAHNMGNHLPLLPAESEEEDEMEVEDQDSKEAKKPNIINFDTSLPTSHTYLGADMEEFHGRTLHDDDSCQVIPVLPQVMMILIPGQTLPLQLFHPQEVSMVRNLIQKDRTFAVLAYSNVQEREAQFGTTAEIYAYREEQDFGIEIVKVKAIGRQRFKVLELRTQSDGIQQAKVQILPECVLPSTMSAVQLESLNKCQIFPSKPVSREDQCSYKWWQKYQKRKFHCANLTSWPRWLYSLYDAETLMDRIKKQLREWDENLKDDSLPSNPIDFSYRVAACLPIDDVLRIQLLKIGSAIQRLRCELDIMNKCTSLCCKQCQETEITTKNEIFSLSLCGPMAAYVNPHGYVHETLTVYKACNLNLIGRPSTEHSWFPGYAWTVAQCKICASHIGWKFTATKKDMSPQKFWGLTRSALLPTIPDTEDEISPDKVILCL
WIZ (Widely interspaced zinc finger), sequence (Q16531 whole entry partner, the tested form may be a part): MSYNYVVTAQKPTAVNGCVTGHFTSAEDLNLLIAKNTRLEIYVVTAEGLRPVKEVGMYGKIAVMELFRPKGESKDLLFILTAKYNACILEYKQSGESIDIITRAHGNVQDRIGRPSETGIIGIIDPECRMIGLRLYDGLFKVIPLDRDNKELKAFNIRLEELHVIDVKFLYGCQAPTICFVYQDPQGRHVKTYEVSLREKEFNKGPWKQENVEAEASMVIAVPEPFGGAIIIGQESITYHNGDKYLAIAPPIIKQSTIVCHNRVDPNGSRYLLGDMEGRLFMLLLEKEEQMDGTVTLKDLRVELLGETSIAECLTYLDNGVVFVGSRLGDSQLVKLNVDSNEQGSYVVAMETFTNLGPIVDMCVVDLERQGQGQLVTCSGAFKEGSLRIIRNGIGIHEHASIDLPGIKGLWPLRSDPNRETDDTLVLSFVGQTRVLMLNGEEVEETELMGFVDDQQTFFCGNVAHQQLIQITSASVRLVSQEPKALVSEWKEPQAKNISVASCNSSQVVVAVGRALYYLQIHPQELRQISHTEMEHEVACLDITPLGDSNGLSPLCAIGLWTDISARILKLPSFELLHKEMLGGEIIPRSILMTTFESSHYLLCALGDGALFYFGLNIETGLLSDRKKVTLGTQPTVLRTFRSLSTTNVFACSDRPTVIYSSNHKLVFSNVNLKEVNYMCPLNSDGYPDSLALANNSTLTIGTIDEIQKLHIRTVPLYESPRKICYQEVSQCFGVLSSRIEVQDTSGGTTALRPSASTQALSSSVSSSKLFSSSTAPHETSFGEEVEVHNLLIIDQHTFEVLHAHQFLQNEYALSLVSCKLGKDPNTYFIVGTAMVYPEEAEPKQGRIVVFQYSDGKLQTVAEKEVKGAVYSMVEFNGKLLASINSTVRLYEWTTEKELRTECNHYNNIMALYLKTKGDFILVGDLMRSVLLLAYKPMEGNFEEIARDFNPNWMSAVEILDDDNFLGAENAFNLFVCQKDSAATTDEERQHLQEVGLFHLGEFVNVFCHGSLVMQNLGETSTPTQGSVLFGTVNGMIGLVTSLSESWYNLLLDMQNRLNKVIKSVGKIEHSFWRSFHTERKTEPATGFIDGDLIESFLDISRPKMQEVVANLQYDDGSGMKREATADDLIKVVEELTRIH
(In general: With HiBiT, luminescence reflects the tagged protein that the partner subunit can reach.)

The target in test [2] is ZBTB7A (Zinc Finger And BTB Domain Containing 7A) (Homo sapiens (Human), UniProt O95365+Q96SW2). In words: HUDEP-2 ZBTB7A HiBiT degradation assay. The note with it: HUDEP-2 ZBTB7A HiBiT cells, 24 hours treatment, luminescence; for DC50: read-out: ZBTB7A EC50. How it is done: as §1
ZBTB7A (Zinc Finger And BTB Domain Containing 7A), sequence (O95365 whole entry, the tested form may be a part): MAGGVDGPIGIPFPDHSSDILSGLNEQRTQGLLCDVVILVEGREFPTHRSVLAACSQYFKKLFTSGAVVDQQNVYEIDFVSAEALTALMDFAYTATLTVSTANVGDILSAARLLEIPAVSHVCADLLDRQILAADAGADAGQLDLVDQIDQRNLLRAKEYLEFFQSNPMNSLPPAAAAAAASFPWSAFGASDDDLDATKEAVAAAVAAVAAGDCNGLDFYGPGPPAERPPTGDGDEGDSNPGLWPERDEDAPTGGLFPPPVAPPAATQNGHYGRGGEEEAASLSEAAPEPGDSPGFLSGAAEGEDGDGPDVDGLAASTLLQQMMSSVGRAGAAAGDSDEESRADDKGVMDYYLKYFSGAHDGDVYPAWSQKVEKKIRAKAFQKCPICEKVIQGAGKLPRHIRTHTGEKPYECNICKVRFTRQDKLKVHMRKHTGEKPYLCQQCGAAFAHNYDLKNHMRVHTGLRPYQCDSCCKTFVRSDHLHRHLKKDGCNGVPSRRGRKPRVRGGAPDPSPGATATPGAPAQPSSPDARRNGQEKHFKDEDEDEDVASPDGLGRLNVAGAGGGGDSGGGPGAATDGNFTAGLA
ZBTB7A (Zinc Finger And BTB Domain Containing 7A), sequence (Q96SW2 whole entry, the tested form may be a part): as the sequence (Q96SW2 whole entry, the tested form may be a part) above
ZBTB7A (Zinc Finger And BTB Domain Containing 7A), sequence (Q16531 whole entry partner, the tested form may be a part): as the sequence (Q16531 whole entry partner, the tested form may be a part) above
For the HUDEP-2 ZBTB7A HiBiT assay, cell count and viability were measured by trypan blue exclusion using the Vi-cell XR cell viability analyzer and the cells were transferred to a 50 mL conical and centrifuged at 500 g for five minutes. Cells were resuspended in fresh IMDM media supplemented with L-Glutamine (1×), Penicillin-Streptomycin (50 U/mL), holo-transferrin (330 μg/mL), heparin (2 IU/mL), r-human Insulin (10 μg/mL), rhEPO (3 IU/mL), rhSCF (100 ng/mL)+Dox (1 μg/mL) and 5% human plasma in low attachment flasks, which were placed in a 37° C. incubator with 5% CO2. After 48 hours, cell count and viability were measured by trypan blue exclusion using the Vi-cell XR cell viability analyzer. The HUDEP-2 ZBTB7A cells were transferred to a 50 mL conical, centrifuged at 500 g for five minutes and resuspended at a density of 1.0×10^6 cells/ml in IMDM media supplemented with L-Glutamine (1×), Penicillin-Streptomycin (50 U/mL), holo-transferrin (330 μg/mL), heparin (2 IU/mL), r-human Insulin (10 μg/mL), rhEPO (3 IU/mL), rhSCF (100 ng/mL)+Dox (1 μg/mL) and 5% human plasma. Forty microliters of cell suspension was dispensed into 384-well Low Flange White Flat Bottom Polystyrene TC-treated Microplates containing pre-dispensed compounds, using a VIAFLO 384 liquid hander, and placed in a 37° C. incubator with 5% CO2. […] After 24 hours of treatment, 40 μL Nano-Glo HiBiT Lytic Detection System reagent was dispensed into each well using a VIAFLO 384 liquid hander. Plates were incubated for 25 minutes at room temperature and the luminescence was read as relative luminescent units using the EnVision plate reader. EC50 and Y-min values were calculated using curves calculated from dotmatics software after the normalization to the DMSO control of 10 different concentrations: 10, 3.33, 1.11, 0.37, 0.12, 0.04 0.0137, 0.0046, 0.0015 and 0.0005 μM respectively.

The test system of test [3] is fetal hemoglobin (HbF) in GCSF-mobilized human CD34+ cells. In words: HbF Induction Assay. Particulars: 168 h; compound 1 μM, 7 days, erythroid-differentiated human CD34+ cells, flow cytometry; DMSO baseline 15% HbF positive cells. How it is done: The expansion, differentiation, and maturation of GCSF-mobilized human CD34^+ (STEMCELL Technologies Inc.) cells towards erythroid lineage cells were performed using a two-phase liquid culture model (Moutouh-de Parseval L A, el al. Pomalidomide and lenalidomide regulate erythropoiesis and fetal hemoglobin production in human CD34+ cells. J Clin Invest. 2008 January; 118(1):248-58). In the first phase, GCSF-mobilized human CD34^+ cells were cultured using StemSpan™-XF (STEMCELL Technologies Inc.) media supplemented with 1×BIT 9500, Penicillin-Streptomycin (50 U/mL), 100 ng/mL recombinant human (rh) SCF, 100 ng/mL rh Flt3-L, 20 ng/mL rh IL-3 and 10 ng/mL rh EPO and the growth of cells maintained in exponential phase for 7 days at 37° C. with 5% CO2 to support expansion and progenitor differentiation prior the second phase and treatment with compounds. In the second phase, culture media was changed to StemSpan™-XF media supplemented with 1×BIT 9500, Penicillin-Streptomycin (50 U/mL), 50 ng/mL rh SCF and 40 ng/mL rh EPO to promote further differentiation and maturation of the erythrocytes and to initiate treatment with compounds. Compounds were dispensed in duplicate at a final concentration of 1 μM in a final DMSO amount of 0.1%. Fresh compound was reapplied, and cell density was kept constant every 2 days. After 7 days, the cells were assessed for viability and fetal hemoglobin expression using flow cytometry. For viability analysis, eBioscience™ Fixable Viability Dye eFluor™ 780 (1:1000, eBioscience; Cat #65-0865-14) was added to the cells and kept in the dark for 10 minutes. For analysis of fetal hemoglobin (HbF), cells were fixed and permeabilized using Fixation Buffer (BioLegend; Cat #420801 and Intracellular staining permeabilization buffer (BioLegend, Cat #420201) following manufacturer's instructions. During permeabilization step, cells were stained with PE-labelled Mouse Anti-Human Fetal Hemoglobin (1:10, clone 2D12; BD Biosciences, Cat #BDB560041) incubated at room temperature for 20 minutes and protected from light. PE-labelled Mouse anti-IgG k, (1:10 clone MOPC-21; BD Biosciences, Cat# BDB551436) was used as an isotype control.
Viability, cell count, and fetal hemoglobin (HbF) levels were measured using an Attune NXT flow cytometer (Thermofisher) and the data analyzed using the FCS express software (De Novo Software). In Table 1 below, the effects of compounds of formula (I), formula (I′), formula (II), formula (II′), and formula (III) on % viable cells, viable cell count, on the % HbF positive cells and the median fluorescent intensity (MFI) of the HbF positive cell population compared to the DMSO controls can be viewed. All gates were set using the isotype negative control. The baseline % HbF positive cells for DMSO-treated control cells was 15%. Compounds of formula (I), formula (I′), formula (II), formula (II′), and formula (III) having HbF induction between 66% and 100% are level A. Compounds of formula (I), formula (I′), formula (II), formula (II′), and formula (III) having HbF induction between 33% and 66% are level B. Compounds of formula (I), formula (I′), formula (II), formula (II′), and formula (III) having HbF induction % less than 33% are level C. For certain compounds of formula (I), formula (I′), formula (II), formula (II′), and formula (III) % HbF induction values 0-33% (activity level C), between 33% and 66% (activity level B), and between 67% and 100% (activity level A) are shown in Table 2 below.

Take `Cc1cc(-c2cc3onc(C)c3cc2Nc2cccc3c2C(=O)N(C2CCC(=O)NC2=O)C3=O)ccn1` (stereo not drawn) [Compound 8, 2-(2,6-dioxopiperidin-3-yl)-4-((3-methyl-6-(2-methylpyridin-4-yl)benzo[d]isoxazol-5-yl)amino)isoindoline-1,3-dione]: the DC50 lay within 10 to 100 nM in test [1] and 30 to 100 nM in test [2]. In test [3], this molecule displayed an activation at 1 µM of 66 to 100%.
Broadly, the EC50 is the concentration at which the effect is half-maximal. The low end stands for higher potency in that assay, the high end for lower potency in that assay. For `CN(C)C1CCc2ccc(Nc3cccc4c3C(=O)N([C@@]3(C)CCC(=O)NC3=O)C4=O)cc21` (stereo partly drawn) [Compound 31, 4-((3-(dimethylamino)-2,3-dihydro-1H-inden-5-yl)amino)-2-((S)-3-methyl-2,6-dioxopiperidin-3-yl)isoindoline-1,3-dione], the DC50 in test [1] lay in the range of 10 to 100 nM. The EC50 in test [2] is above 100 nM. The molecule also came in with an activation at 1 µM in test [3] of 33 to 66%.
On the same counts, the results for `Cc1cc(-c2cc3c(cnn3C)cc2Nc2cccc3c2C(=O)N(C2CCC(=O)NC2=O)C3=O)ccn1` (stereo not drawn) [Compound 19, 2-(2,6-dioxopiperidin-3-yl)-4-((1-methyl-6-(2-methylpyridin-4-yl)-1H-indazol-5-yl)amino)isoindoline-1,3-dione] are above 100 nM, above 100 nM and 66 to 100%.
Regarding `Cc1ncncc1Oc1ccc2c(cnn2C)c1Nc1cccc2c1C(=O)N(C1CCC(=O)NC1=O)C2=O` (stereo not drawn) [Compound 26, 2-(2,6-dioxopiperidin-3-yl)-4-((1-methyl-5-((4-methylpyrimidin-5-yl)oxy)-1H-indazol-4-yl)amino)isoindoline-1,3-dione], the DC50 in test [1] is 10 to 100 nM. In test [2], this molecule showed an EC50 above 100 nM. In addition, the activation at 1 µM in test [3] is below 33%.
On to `CN(C)CCOc1cc(Oc2ccccc2)c(Nc2cccc3c2C(=O)N(C2CCC(=O)NC2=O)C3=O)cn1` (stereo not drawn) [Compound 9, 4-((6-(2-(dimethylamino)ethoxy)-4-phenoxypyridin-3-yl)amino)-2-(2,6-dioxopiperidin-3-yl)isoindoline-1,3-dione], for which the EC50 in test [1] is below 10 nM. Also, in test [2], the DC50 is 30 to 100 nM. In test [3], this molecule gave an activation at 1 µM of 66 to 100%.
The corresponding values for `COc1cc2c(cnn2C2CCOCC2)cc1Nc1cccc2c1C(=O)N(C1CCC(=O)NC1=O)C2=O` (stereo not drawn) [Compound 18, 2-(2,6-dioxopiperidin-3-yl)-4-((6-methoxy-1-(tetrahydro-2H-pyran-4-yl)-1H-indazol-5-yl)amino)isoindoline-1,3-dione] are below 10 nM, 30 to 100 nM and 66 to 100%.
As for `Cc1cc(-c2cc3c(cc2Nc2cccc4c2C(=O)N([C@H]2CCC(=O)NC2=O)C4=O)n(C)c(=O)n3C)cc(C)n1` [Compound 40, (S)-4-((6-(2,6-dimethylpyridin-4-yl)-1,3-dimethyl-2-oxo-2,3-dihydro-1H-benzo[d]imidazol-5-yl)amino)-2-(2,6-dioxopiperidin-3-yl)isoindoline-1,3-dione], the values for the EC50 in test [1] and in test [2] were below 10 nM and below 30 nM, respectively. For the same molecule, the activation at 1 µM in test [3] fell in the range of 66 to 100%.
In the case of `Cc1nccc(-c2cc3c(cc2Nc2cccc4c2C(=O)N(C2CCC(=O)NC2=O)C4=O)N(C)C(=O)CC3)c1F` (stereo not drawn) [Compound 45, 2-(2,6-dioxopiperidin-3-yl)-4-((6-(3-fluoro-2-methylpyridin-4-yl)-1-methyl-2-oxo-1,2,3,4-tetrahydroquinolin-7-yl)amino)isoindoline-1,3-dione], the EC50 in test [1] was below 10 nM; in test [2], below 30 nM. Besides, the activation at 1 µM in test [3] fell in the range of 66 to 100%.
The corresponding values for `Cc1c(Nc2cccc3c2C(=O)N(C2CCC(=O)NC2=O)C3=O)ccc2c1cnn2C1CCOCC1` (stereo not drawn) [Compound 20, 2-(2,6-dioxopiperidin-3-yl)-4-((4-methyl-1-(tetrahydro-2H-pyran-4-yl)-1H-indazol-5-yl)amino)isoindoline-1,3-dione] are below 10 nM, above 100 nM and 33 to 66%.
